Source: patent US9695155B2, “Herbicidal substituted pyrimidinyloxy benzene compounds” (E. I. DU PONT DE NEMOURS AND COMPANY, priority 2013, dated 2017)

Columns and labels:
barnyardgrass = experiment: Test C postemergence; format: in vivo, Echinochloa crus-galli; conditions: for Barnyardgrass plant response rating / Plant response rating, Barnyardgrass: scale 0 to 100 (0 no effect, 100 complete control)
Procedure, shortened: (§1)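 Seeds are planted in blended loam soil and sand and treated preemergence, while seedlings in a peat moss/vermiculite medium receive postemergence sprays at 2 to 18 cm height. All plants stay in the greenhouse for 13 to 15 days before visual comparison with controls on a 0–100 scale.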

Italian ryegrass = experiment: Test C postemergence; format: in vivo, Lolium multiflorum; conditions: for Plant response rating, Ryegrass, Italian: scale 0 to 100 (0 no effect, 100 complete control)
Procedure, shortened: as §1

pigweed [1] = experiment: Test C preemergence; format: in vivo, Amaranthus retroflexus; conditions: for Pigweed plant response rating: preemergence; for Plant response rating, Pigweed: Preemergence, 31 g ai/ha, scale 0 to 100, 0 no effect, 100 complete control
Procedure, shortened: as §1

yellow nutsedge = experiment: Test C preemergence; format: in vivo, Cyperus esculentus; conditions: for Nutsedge, Yellow plant response rating: preemergence; for Plant response rating, Nutsedge, Yellow: Preemergence, 31 g ai/ha, scale 0 to 100, 0 no effect, 100 complete control
Procedure, shortened: as §1

Heteranthera limosa = experiment: Test B flooded paddy test; format: in vivo; conditions: Flood, 250 g ai/ha; 0 to 100 scale where 0 is no effect and 100 is complete control
Procedure, shortened: (§2)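 Seedlings are raised to two leaves, flooded to a depth of 3 cm and dosed by adding the compound to the floodwater. Water level is kept constant, and plants are scored visually versus controls 13–15 days later (0 = no effect, 100 = complete control).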

soybean = experiment: Test C postemergence; format: in vivo, Glycine max; conditions: for Plant response rating, Soybean: scale 0 to 100 (0 no effect, 100 complete control)
Procedure, shortened: as §1

lambsquarters [2] = experiment: Test C preemergence; format: in vivo, Chenopodium album; conditions: for Lambsquarters plant response rating: preemergence; for Plant response rating, Lambsquarters: Preemergence, 31 g ai/ha, scale 0 to 100, 0 no effect, 100 complete control
Procedure, shortened: as §1

blackgrass = experiment: Test C postemergence; format: in vivo, Alopecurus myosuroides; conditions: for Blackgrass plant response rating / Plant response rating, Blackgrass: scale 0 to 100 (0 no effect, 100 complete control)
Procedure, shortened: as §1

kochia = experiment: Test C postemergence; format: in vivo, Kochia scoparia; conditions: for Kochia plant response rating / Plant response rating, Kochia: scale 0 to 100 (0 no effect, 100 complete control)
Procedure, shortened: as §1

lambsquarters [3] = experiment: Test C postemergence; format: in vivo, Chenopodium album; conditions: for Plant response rating, Lambsquarters: scale 0 to 100 (0 no effect, 100 complete control)
Procedure, shortened: as §1

pigweed [4] = experiment: Test C postemergence; format: in vivo, Amaranthus retroflexus; conditions: for Plant response rating, Pigweed: scale 0 to 100 (0 no effect, 100 complete control)
Procedure, shortened: as §1

rice = experiment: Test B flooded paddy test; format: in vivo, Oryza sativa; conditions: Flood, 250 g ai/ha; 0 to 100 scale where 0 is no effect and 100 is complete control
Procedure, shortened: as §2

wheat, winter = experiment: Test C preemergence; format: in vivo, Triticum aestivum; conditions: for Wheat plant response rating: preemergence; for Plant response rating, Wheat: Preemergence, 31 g ai/ha, scale 0 to 100, 0 no effect, 100 complete control
Procedure, shortened: as §1

[5] = 16 g ai/ha, postemergence, visual rating, 13 to 15 days
[6] = Postemergence, 31 g ai/ha, 13 to 15 days
[7] = 16 g ai/ha, scale 0 to 100 (0 no effect, 100 complete control)
[8] = 62 g ai/ha, scale 0 (no effect) to 100 (complete control)
[9] = 125 g ai/ha, scale 0 (no effect) to 100 (complete control)
[10] = 16 g ai/ha, postemergence, 0 is no effect, 100 is complete control
[11] = 125 g ai/ha, postemergence, visual rating

N#Cc1cccc(Oc2ncc(F)cn2)c1-n1cc(I)cn1 [Compound 86]
Barnyardgrass plant response rating (barnyardgrass; [5]): 0
Plant response rating (0 to 100), Barnyardgrass (barnyardgrass; 125 g ai/ha, postemergence): 5
Plant response rating, Barnyardgrass (barnyardgrass; [6]): 5
Plant response rating, Barnyardgrass (barnyardgrass; Postemergence, 62 g ai/ha): 5
Plant response rating (0 to 100), Ryegrass, Italian (Italian ryegrass; 125 g ai/ha, postemergence): 5
Plant response rating, Ryegrass, Italian (Italian ryegrass; [6]): 0
Plant response rating, Ryegrass, Italian (Italian ryegrass; Postemergence, 62 g ai/ha): 5
Pigweed plant response rating (pigweed [1]; [7]): 90
Pigweed plant response rating (pigweed [1]; [8]): 100
Pigweed plant response rating (pigweed [1]; [9]): 100
Plant response rating, Pigweed (pigweed [1]): 100
Nutsedge, Yellow plant response rating (yellow nutsedge; [7]): 0
Nutsedge, Yellow plant response rating (yellow nutsedge; [8]): 5
Nutsedge, Yellow plant response rating (yellow nutsedge; [9]): 35
Plant response rating, Nutsedge, Yellow (yellow nutsedge): 0
Plant response rating, Ducksalad (Heteranthera limosa): 75
Plant response rating (0 to 100), Soybean (soybean; 125 g ai/ha, postemergence): 75
Plant response rating, Soybean (soybean; [6]): 60
Plant response rating, Soybean (soybean; Postemergence, 62 g ai/ha): 70
Lambsquarters plant response rating (lambsquarters [2]; [7]): 100
Lambsquarters plant response rating (lambsquarters [2]; [8]): 100
Lambsquarters plant response rating (lambsquarters [2]; [9]): 100
Plant response rating, Lambsquarters (lambsquarters [2]): 100
Blackgrass plant response rating (blackgrass; [5]): 5
Plant response rating (0 to 100), Blackgrass (blackgrass; 125 g ai/ha, postemergence): 10
Plant response rating, Blackgrass (blackgrass; [6]): 5
Plant response rating, Blackgrass (blackgrass; Postemergence, 62 g ai/ha): 5
Kochia plant response rating (kochia; [5]): 50
Plant response rating (0 to 100), Kochia (kochia; 125 g ai/ha, postemergence): 95
Plant response rating, Kochia (kochia; [6]): 60
Plant response rating, Kochia (kochia; Postemergence, 62 g ai/ha): 90
Plant response rating (0 to 100), Lambsquarters (lambsquarters [3]; 125 g ai/ha, postemergence): 85
Plant response rating, Lambsquarters (lambsquarters [3]; [6]): 45
Plant response rating, Lambsquarters (lambsquarters [3]; Postemergence, 62 g ai/ha): 65
Plant response rating (0 to 100), Pigweed (pigweed [4]; 125 g ai/ha, postemergence): 80
Plant response rating, Pigweed (pigweed [4]; [6]): 65
Plant response rating, Pigweed (pigweed [4]; Postemergence, 62 g ai/ha): 65
Plant response rating, Rice (rice): 0
Wheat plant response rating (wheat, winter; [7]): 0
Wheat plant response rating (wheat, winter; [8]): 0
Wheat plant response rating (wheat, winter; [9]): 35
Plant response rating, Wheat (wheat, winter): 0

FCc1cccc(Oc2ncc(Cl)cn2)c1-n1cc(Br)cn1 [Compound 83]
Barnyardgrass plant response rating (barnyardgrass; [5]): 5
Plant response rating (0 to 100), Barnyardgrass (barnyardgrass; 125 g ai/ha, postemergence): 5
Plant response rating, Barnyardgrass (barnyardgrass; [6]): 5
Plant response rating, Barnyardgrass (barnyardgrass; Postemergence, 62 g ai/ha): 5
Plant response rating (0 to 100), Ryegrass, Italian (Italian ryegrass; 125 g ai/ha, postemergence): 5
Plant response rating, Ryegrass, Italian (Italian ryegrass; [6]): 0
Plant response rating, Ryegrass, Italian (Italian ryegrass; Postemergence, 62 g ai/ha): 5
Pigweed plant response rating (pigweed [1]; [7]): 85
Pigweed plant response rating (pigweed [1]; [8]): 100
Pigweed plant response rating (pigweed [1]; [9]): 100
Plant response rating, Pigweed (pigweed [1]): 100
Nutsedge, Yellow plant response rating (yellow nutsedge; [7]): 0
Nutsedge, Yellow plant response rating (yellow nutsedge; [8]): 0
Nutsedge, Yellow plant response rating (yellow nutsedge; [9]): 15
Plant response rating, Nutsedge, Yellow (yellow nutsedge): 0
Plant response rating, Ducksalad (Heteranthera limosa): 45
Plant response rating (0 to 100), Soybean (soybean; 125 g ai/ha, postemergence): 90
Plant response rating, Soybean (soybean; [6]): 60
Plant response rating, Soybean (soybean; Postemergence, 62 g ai/ha): 70
Lambsquarters plant response rating (lambsquarters [2]; [7]): 100
Lambsquarters plant response rating (lambsquarters [2]; [8]): 100
Lambsquarters plant response rating (lambsquarters [2]; [9]): 100
Plant response rating, Lambsquarters (lambsquarters [2]): 100
Blackgrass plant response rating (blackgrass; [5]): 0
Plant response rating (0 to 100), Blackgrass (blackgrass; 125 g ai/ha, postemergence): 20
Plant response rating, Blackgrass (blackgrass; [6]): 5
Plant response rating, Blackgrass (blackgrass; Postemergence, 62 g ai/ha): 5
Kochia plant response rating (kochia; [5]): 60
Plant response rating (0 to 100), Kochia (kochia; 125 g ai/ha, postemergence): 95
Plant response rating, Kochia (kochia; [6]): 70
Plant response rating, Kochia (kochia; Postemergence, 62 g ai/ha): 90
Plant response rating (0 to 100), Lambsquarters (lambsquarters [3]; 125 g ai/ha, postemergence): 80
Plant response rating, Lambsquarters (lambsquarters [3]; [6]): 80
Plant response rating, Lambsquarters (lambsquarters [3]; Postemergence, 62 g ai/ha): 60
Plant response rating (0 to 100), Pigweed (pigweed [4]; 125 g ai/ha, postemergence): 85
Plant response rating, Pigweed (pigweed [4]; [6]): 75
Plant response rating, Pigweed (pigweed [4]; Postemergence, 62 g ai/ha): 75
Plant response rating, Rice (rice): 0
Wheat plant response rating (wheat, winter; [7]): 0
Wheat plant response rating (wheat, winter; [8]): 0
Wheat plant response rating (wheat, winter; [9]): 0
Plant response rating, Wheat (wheat, winter): 0

Cc1cnc(Oc2cccc(C#N)c2-n2cc(I)cn2)nc1 [Compound 136]
Plant response rating (0 to 100), Barnyardgrass (barnyardgrass; [10]): 0
Plant response rating, Barnyardgrass (barnyardgrass; [11]): 5
Plant response rating, Barnyardgrass (barnyardgrass; [6]): 0
Plant response rating, Barnyardgrass (barnyardgrass; Postemergence, 62 g ai/ha): 0
Plant response rating (0 to 100), Ryegrass, Italian (Italian ryegrass; [10]): 0
Plant response rating, Ryegrass, Italian (Italian ryegrass; [11]): 0
Plant response rating, Ryegrass, Italian (Italian ryegrass; Postemergence, 62 g ai/ha): 0
Pigweed plant response rating (pigweed [1]; [7]): 0
Pigweed plant response rating (pigweed [1]; [8]): 40
Pigweed plant response rating (pigweed [1]; [9]): 100
Nutsedge, Yellow plant response rating (yellow nutsedge; [7]): 0
Nutsedge, Yellow plant response rating (yellow nutsedge; [8]): 10
Nutsedge, Yellow plant response rating (yellow nutsedge; [9]): 35
Plant response rating, Ducksalad (Heteranthera limosa): 70
Plant response rating (0 to 100), Soybean (soybean; [10]): 35
Plant response rating, Soybean (soybean; [11]): 90
Plant response rating, Soybean (soybean; Postemergence, 62 g ai/ha): 75
Lambsquarters plant response rating (lambsquarters [2]; [8]): 80
Lambsquarters plant response rating (lambsquarters [2]; [9]): 100
Plant response rating (0 to 100), Blackgrass (blackgrass; [10]): 0
Plant response rating, Blackgrass (blackgrass; [11]): 5
Plant response rating, Blackgrass (blackgrass; [6]): 5
Plant response rating, Blackgrass (blackgrass; Postemergence, 62 g ai/ha): 5
Plant response rating (0 to 100), Kochia (kochia; [10]): 5
Plant response rating, Kochia (kochia; [11]): 70
Plant response rating, Kochia (kochia; Postemergence, 62 g ai/ha): 60
Plant response rating (0 to 100), Lambsquarters (lambsquarters [3]; [10]): 20
Plant response rating, Lambsquarters (lambsquarters [3]; [11]): 75
Plant response rating, Lambsquarters (lambsquarters [3]; Postemergence, 62 g ai/ha): 60
Plant response rating (0 to 100), Pigweed (pigweed [4]; [10]): 45
Plant response rating, Pigweed (pigweed [4]; [11]): 55
Plant response rating, Pigweed (pigweed [4]; Postemergence, 62 g ai/ha): 55
Plant response rating, Rice (rice): 15
Wheat plant response rating (wheat, winter; [7]): 0
Wheat plant response rating (wheat, winter; [8]): 0
Wheat plant response rating (wheat, winter; [9]): 0
